{"source": "paper PMC5731860", "about": "“Novel allylated monocarbonyl analogs of curcumin induce mitotic arrest and apoptosis by reactive oxygen species-mediated endoplasmic reticulum stress and inhibition of STAT3” (Oncotarget, 2017)", "key": {"BGC-823 [1]": {"system": "BGC-823", "test": "MTT assay, growth inhibition / cell viability", "format": "cell-based", "conditions": "Homo sapiens", "procedure": "(§1) First, we investigated whether allylated MAC alter the viability or have cytotoxic effects on cells in culture. We have performed MTT tetrazolium reduction assay following exposure of cancer cells (gastric cancer, BGC823 and SGC-7901; colon cancer, HT-29, HCT-116 and SW-480) and normal gastric epithelial cells (GES-1) to all 20 allylated MAC at a concentration of 20 μM for 24 h. […] In addition, we also found notable solubility and stability profile of these compounds (Supplementary Figure 1).\n(§2) Cells were plated at a density of 8 × 10^3 cells/well in 96-well plates and allowed to attach overnight. Stock solutions of allylated MAC and curcumin were prepared in DMSO and diluted in culture media to obtain appropriate concentration. Cells were treated for 24 h and 48 h, following which, 20 μL of 5 mg/ml MTT reagent was added. Purple formazan product was dissolved by the addition of 100 μL DMSO to each well. Absorbance was then monitored at 490 nm using a plate reader (Molecular Device Spectra MAX190, USA). Percentage of cytotoxicity was determined using the following formula: Growth inhibition (%) = (OD of control−OD of test/OD of control×100%)."}, "SGC-7901 [2]": {"system": "SGC-7901", "test": "MTT assay, growth inhibition / cell viability", "format": "cell-based", "conditions": "Homo sapiens", "procedure": "as §1, §2"}, "HT-29": {"system": "HT-29", "test": "MTT assay, growth inhibition", "format": "cell-based", "conditions": "Homo sapiens, HT-29, 24 h", "procedure": "as §1, §2"}, "HCT-116": {"system": "HCT-116", "test": "MTT assay, growth inhibition", "format": "cell-based, human", "procedure": "as §1, §2"}, "SW-480": {"system": "SW-480", "test": "MTT assay, growth inhibition", "format": "cell-based, human", "conditions": "Homo sapiens, SW480, 24 h", "procedure": "as §1, §2"}, "GES-1": {"system": "GES-1", "test": "MTT assay, growth inhibition in normal gastric epithelial cells", "format": "cell-based, human", "procedure": "as §1, §2"}, "BGC-823 [3]": {"system": "BGC-823", "test": "Clonogenic (colony formation) assay", "format": "cell-based, human", "conditions": "BGC-823, 2.5, 5 or 10 μM for 24 h, then 7 days culture", "procedure": "(§3) The BGC-823 and SGC-7901 cells were seeded at 1000 cells/well in 6 well plates and allowed to attach overnight. Cells were then exposed to various concentrations (2.5, 5 and 10 μM) of CA10 for 24 h in presence and absence of NAC (5 mM). Following treatments, media was changed to fresh culture media and cultures were followed for 7 days. The experiment was terminated by washing the colonies with PBS and fixation with […] at room temperature for 10 min. Colonies were then stained with Crystal violet for 10 min and counted."}, "SGC-7901 [4]": {"system": "SGC-7901", "test": "Clonogenic (colony formation) assay", "format": "cell-based, human", "conditions": "SGC-7901, 2.5, 5 or 10 μM for 24 h, then 7 days culture", "procedure": "as §3"}, "SGC-7901 cells": {"system": "SGC-7901 cells", "test": "Malondialdehyde (MDA) and total GSH in cancer cells", "format": "cell-based, human", "procedure": "The treated cells were harvested with RIPA buffer at 4°C. Cell lysates were then centrifuged at 12,000 × g for 10 min at 4°C to collect the supernatant. Protein content was determined by the Bradford protein assay kit. Equal amounts of proteins were used for malondialdehyde (MDA) and total GSH assay (Beyotime Institute of Biotechnology, Nantong, China). MDA and total GSH levels were detected by measuring absorbance respectively at 532 nm and 412 nm using a multimode microplate reader (Molecular Devices, SpectraMax 190, USA"}, "p-STAT3": {"system": "p-STAT3", "test": "Western blot of p-STAT3", "format": "cell-based, human", "conditions": "SGC-7901, western blot, 1, 3, 6 and 12 h; total STAT3 not changed", "procedure": "(§4) Protein samples were prepared from cells following treatments or tumor tissues. Protein concentration was determined by Bradford protein assay kit (Bio-Rad, Hercules, CA). Samples were separated on precast 8%-12% SDS polyacrylamide gels. After electrophoresis, proteins were transferred to poly vinylidene difluoride (PVDF) membrane. The membranes were blocked with 5% non-fat milk in tris-buffered saline containing 0.1% Tween 20 (TBST) for 90 min at room temperature, then primary antibodies (1:1000) in TBST were added and membranes incubated overnight at 4°C. After washing with TBST, horseradish peroxidase (HRP)-conjugated secondary antibodies (1:3000) were added for 1 hour at room temperature. After additional washing with TBST, enhanced chemiluminescence detection system (ECL, GE Healthcare) was used. Membranes were probed for GAPDH as a loading control. The density of the immunoreactive bands was analyzed using Image J (National Institute of Health, MD)."}, "[5]": {"system": "p-PERK, p-eIF2α, ATF-4 and CHOP", "test": "Western blot of ER stress proteins", "format": "cell-based, human", "conditions": "SGC-7901, 10 μM, 1, 3, 6 and 12 h", "procedure": "as §4"}, "[6]": {"system": "SGC-7901 xenograft tumors", "test": "In vivo mouse xenograft model, tumor growth", "design": "species or system mice", "from_the_text": "(§5) All animal experiments complied with the Wenzhou Medical University's Policy on the Care and Use of Laboratory Animals. Protocols for animal studies were approved by the Wenzhou Medical University Animal Policy and Welfare Committee (Approved documents: 2016/201). Athymic BALB/c nu/nu female mice weighing 20–22 g (6 weeks old) were purchased from Vital River Laboratories (Beijing, China). Animals were housed (6 animals/gage) at a constant room temperature with a 12/12-hr light/dark cycle and fed a standard rodent diet and water ad libitum. SGC-7901 cells were injected subcutaneously into the right flank of each mice at 1 × 10^6 cells in 0.1 mL PBS. Once tumors reached a volume of 100–200 mm^3, mice were randomly divided into 4 groups. These groups included mice treated with 10 mg/kg CA10, mice treated with 20 mg/kg CA10, mice treated 50 mg/kg curcumin, and control mice receiving vehicle alone. All treatments were carried out with intraperitoneal injections. The body weight and tumor volumes were monitored and determined by measuring length (l) and width (w) and calculated as tumor volume (V = 0.5 × l × w2) at the indicated time points. At the end of treatment period, mice were sacrificed and the tumors were removed and weighed for histological analyses and proteins measurement studies."}, "[7]": {"test": "H&E histology of vital organs of xenograft mice", "format": "in vivo", "conditions": "ip once a day for 12 days", "procedure": "Portions of heart, liver, kidney and tumor tissues from mice were fixed in 4% paraformaldehyde solution for 1 week at room temperature. Specimens were then dehydrated by passing through graded ethanol, cleared in xylene, and embedded in paraffin wax. Tissue blocks were sectioned at 5 μm thickness and used for H&E and immunohistochemical staining. Tumor tissue sections were stained with indicated primary antibodies for overnight followed by secondary antibodies for 2 h. Diaminobenzidine (DAB) was used for detection. The slides were counterstained with hematoxylin for 30 seconds and mounted. For histologic analysis of heart, kidney and liver tissue sections, we performed routine H&E staining and viewed the sections under a light microscope (20× magnification, Nikon, Japan)."}, "[8]": {"test": "Body weight of xenograft mice", "format": "in vivo", "conditions": "0–12 days, ip once a day; CA10 10 and 20 mg/kg, curcumin 50 mg/kg", "from_the_text": "as §5"}}, "note": "Entries after “also recorded” stand apart in the source; their conditions may differ.", "data": [{"compound": "C=CCc1cc(C=C2CCC(=Cc3ccc(O)c(CC=C)c3)C2=O)ccc1O", "note": "[CA10]", "values": [{"measurement": "inhibition at 20 µM", "setting": "BGC-823 [1]; BGC-823, 20 μM, 24 h", "result": "67.5 ± 1.54", "unit": "%"}, {"measurement": "IC50", "setting": "BGC-823 [1]; BGC-823, 24 h", "result": "13 ± 2.48", "unit": "µM"}, {"measurement": "IC50", "setting": "BGC-823 [1]; BGC-823, 48 h", "result": "7.14 ± 1.69", "unit": "µM"}, {"measurement": "IC50", "setting": "SGC-7901 [2]; SGC-7901, 24 h", "result": "15 ± 1.72", "unit": "µM"}, {"measurement": "inhibition at 20 µM", "setting": "SGC-7901 [2]; SGC-7901, 24 h, 20 μM, 24 h", "result": "> 80", "unit": "%"}, {"measurement": "IC50", "setting": "SGC-7901 [2]; SGC-7901, 48 h", "result": "6.91 ± 0.43", "unit": "µM"}, {"measurement": "inhibition at 20 µM", "setting": "HT-29", "result": "77.2 ± 4.86", "unit": "%"}, {"measurement": "% Of growth inhibition HCT-116", "setting": "HCT-116; 20 μM, 24 h", "result": "75.37 ± 4.52", "unit": "%"}, {"measurement": "inhibition at 20 µM", "setting": "HCT-116; Homo sapiens, HCT-116, 24 h", "result": 70, "unit": "%"}, {"measurement": "inhibition at 20 µM", "setting": "SW-480", "result": "77.4 ± 7.84", "unit": "%"}, {"measurement": "inhibition of the normal epithelial cells (selective cytotoxicity in cancer cell lines), in words", "setting": "GES-1; 20 μM, 24 h", "result": "minimal inhibition"}, {"measurement": "inhibition at 20 µM", "setting": "GES-1; Homo sapiens, GES1, 24 h, normal gastric epithelial cells", "result": "23.4 ± 7.48", "unit": "%"}, {"measurement": "number of colonies", "setting": "BGC-823 [3]", "result": "reduced number"}, {"measurement": "number of colonies", "setting": "SGC-7901 [4]", "result": "reduced number"}, {"measurement": "level of total GSH", "setting": "SGC-7901 cells; compared to control", "result": "no significant changes; also recorded: marginally decreased"}, {"measurement": "MDA level", "setting": "SGC-7901 cells; enhanced at 20 μM", "result": "increased"}, {"measurement": "protein levels of p-STAT3", "setting": "p-STAT3", "result": "decreased"}, {"measurement": "expression of ER specific proteins (p-PERK, p-eIF2α, ATF-4, CHOP)", "setting": "[5]", "result": "increased expression"}, {"measurement": "inhibition effect on tumor growth compared to CA10 10 mg/kg or curcumin 50 mg/kg", "setting": "[6]; 20 mg/kg ip once a day for 12 days", "result": "greater inhibition effect"}, {"measurement": "tumor weight and volume", "setting": "[6]; ip once a day for 12 days, CA10 10 and 20 mg/kg, curcumin 50 mg/kg", "result": "significant reduction"}, {"measurement": "toxicity in vital organs (heart, liver, kidney), H&E", "setting": "[7]", "result": "without overt toxicity"}, {"measurement": "body weight of mice", "setting": "[8]", "result": "no change"}]}]}
